Laboratory results as given in PMC7881127, “Cholesterol as a modulator of cannabinoid receptor CB2 signaling” (Scientific Reports, 2021).

Biological target: T1, hCB2 (Homo sapiens, UniProt P34972)
T1 construct: purchased PerkinElmer ES111-M400UA; host or cells: CHO-K1 cells stably transfected
Test: [35S]GTPγS binding assay in hCB2-CHO-K1 cell membranes
Assay type: biochemical
Procedure: Figure 2 Affinity and functional effects of novel MRI ligands on CB2 receptor in CHO cell membranes. (a) binding affinities (nM) and Emax (% and nM) of [^35S]-GTPγS binding to CHO membranes (PerkinElmer, Cat. No ES111-M400UA) expressing hCB2. (b) [^35S]-GTPγS binding to membranes as a factor of ligand concentration. Binding of [^35S]-GTPγS was determined as described in “Methods”. Non-specific binding was defined as 0% activity. The assay of GTPγS non-specific binding contains non-radioactive GTPγS.
[^35S] GTPγS binding was assayed as described earlier[65] with slight modifications. Briefly, hCB2-CHO-K1 cell membranes (4 µg) were incubated with 0.05 nM [^35S] GTPγS, and the indicated concentrations of ligands in TEM buffer (50 mM Tris–HCl, 0.2 mM EGTA, and 9 mM MgCl2, pH 7.4) containing 100 µM GDP, 150 mM NaCl, and 0.1% (w/v) bovine serum albumin in a total volume of 1 ml for 60 min at 30 °C.

T1 sequence (P34972 whole entry): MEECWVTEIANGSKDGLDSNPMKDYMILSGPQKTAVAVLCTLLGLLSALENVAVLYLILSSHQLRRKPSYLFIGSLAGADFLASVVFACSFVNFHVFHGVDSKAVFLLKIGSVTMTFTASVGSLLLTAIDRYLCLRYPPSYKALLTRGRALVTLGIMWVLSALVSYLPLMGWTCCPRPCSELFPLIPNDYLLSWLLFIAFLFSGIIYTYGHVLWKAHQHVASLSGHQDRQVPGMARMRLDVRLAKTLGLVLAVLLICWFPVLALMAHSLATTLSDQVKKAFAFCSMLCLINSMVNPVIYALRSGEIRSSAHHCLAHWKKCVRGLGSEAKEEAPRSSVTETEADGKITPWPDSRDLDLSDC

For `CC(=O)OCCn1c(=NC(=O)C2C(C)(C)C2(C)C)sc2cc(Cl)ccc21` [MRI-2646, 2-(6-Chloro-2-((2,2,3,3-tetramethylcyclopropane-1-carbonyl)imino)benzo[d]thiazol-3(2H)-yl)ethyl acetate], the Emax (CHO membranes expressing hCB2 (PerkinElmer ES111-M400UA), read-out: GTPγS binding Emax) was -2 ± 4% and the “Functional effect on G-protein signaling (pharmacological category)” value (hCB2-expressing CHO cell membranes (PerkinElmer)) was “no effect on basal signaling”.
